From US20260174875A1 (Novo Nordisk A/S, priority 2023, published 2026)
Read-outs that look alike come from different tables or passages of the source. One block for each substance: values may come before it. Numbered stars: 1 amine (or outer) side, 2 acyl side, 3 side chain; on linkers, the order of the positions; unused ones are H or OH. Square brackets hold non-standard residues; d marks the D form. Side chains are listed from the residue outwards. * marks the point of attachment. C20 diacid = O=C(O)CCCCCCCCCCCCCCCCCCC(=O)*; C18 diacid = O=C(O)CCCCCCCCCCCCCCCCC(=O)*; C16 diacid = O=C(O)CCCCCCCCCCCCCCC(=O)*; γGlu = O=C(O)[C@H](CCC(=O)[*:2])N[*:1]; AEEA = NCCOCCOCC(=O)O; Aib = CC(C)(N)C(=O)O

Legend:
[1] = Pharmacokinetic study in minipigs (i.v.); type: in vivo, Göttingen minipigs; conditions: female, Göttingen, minipig, plasma, iv; i.v. administration to minipigs, 2 nmol/kg; read-out: Terminal half-life t1/2 (converted)
Protocol: This is done in a pharmacokinetic (PK) study, where the terminal half-life (t1/2) of the compound or derivative in question is determined. By terminal half-life is meant the time it takes to halve a certain plasma concentration in the terminal elimination phase.
Female Göttingen minipigs, obtained from Ellegaard Göttingen Minipigs (Dalmose, Denmark), approximately 8-12 months of age and weighing approximately 20-30 kg were used in the studies.
After three weeks of acclimatisation two permanent central venous catheters were implanted in vena cava caudalis in each animal. The animals were allowed at least 10 days recovery after the surgery and were then used for repeated pharmacokinetic studies with a suitable wash-out period between successive dosing.
The compounds of the invention were formulated (40 nmol/ml) in the following vehicle: 8 mM phosphate; 250 mM glycerol; 0.007% polysorbate 20, pH 7.4.
Blood samples (for example 1.3 ml) were collected in EDTA (1.3 ml tube containing K3EDTA to yield 1.6 mg K3EDTA/ml blood) coated tubes and then centrifuged at 4° C. and 2000×g for 10 minutes.
Plasma was within 30 min after centrifugation pipetted into Micronic tubes stored on dry ice and were afterwards kept at −20° C. until analysed for plasma concentration of the compounds using LCMS.
Plasma concentrations of the peptides of the invention were assayed by plasma protein precipitation and analysed by liquid chromatography mass spectrometry (LC-MS). Calibrators were prepared by spiking blank plasma from minipigs with the compounds in the typical range from 0.05 to 200 nM. […] The supernatant was diluted with 1 volumes of Milli-Q water containing 1% Formic acid before injection on the LC-MS system. Individual plasma concentration-time profiles were analysed by a non-compartmental pharmacokinetic method (NCA) in Phoenix v. 6.4 (Pharsight Inc., Mountain View, CA, USA), and the resulting terminal half-lives (harmonic mean) determined. The LC-MS analysis was carried out using a TurboFlow HPLC system from Thermo Fisher Scientific (Bremen, Germany) coupled to either a Q Exactive Orbitrap or Altis Triple Quadrupole (TQ) Mass Spectrometer. […] The Orbitrap mass spectrometer were operating in positive ionization mode with a spray voltage of 4.0 kV using Parallel Reaction Monitoring scan mode using 5 m/z isolation windows on the most abundant charge state of the compounds with a resolution of 35K on the Orbitrap MS.
The data was processed using the Quan Browser in the Xcalibur software from Thermo Fisher Scientific (Bremen, Germany) by fitted the data to linear calibration curves (weighed 1/x^2), used for calculating the concentration in the plasma samples. Quality control samples were included.

[2] = molecular target: T1, human GLP-1 receptor (hGLP-1R) (Homo sapiens, UniProt P43220); assay: GLP-1 receptor assay, method B (CRE-luciferase reporter, BHK cells, 384-well); type: cell-based
T1 construct: expressed in transfected cells
T1 sequence (P43220 24-463): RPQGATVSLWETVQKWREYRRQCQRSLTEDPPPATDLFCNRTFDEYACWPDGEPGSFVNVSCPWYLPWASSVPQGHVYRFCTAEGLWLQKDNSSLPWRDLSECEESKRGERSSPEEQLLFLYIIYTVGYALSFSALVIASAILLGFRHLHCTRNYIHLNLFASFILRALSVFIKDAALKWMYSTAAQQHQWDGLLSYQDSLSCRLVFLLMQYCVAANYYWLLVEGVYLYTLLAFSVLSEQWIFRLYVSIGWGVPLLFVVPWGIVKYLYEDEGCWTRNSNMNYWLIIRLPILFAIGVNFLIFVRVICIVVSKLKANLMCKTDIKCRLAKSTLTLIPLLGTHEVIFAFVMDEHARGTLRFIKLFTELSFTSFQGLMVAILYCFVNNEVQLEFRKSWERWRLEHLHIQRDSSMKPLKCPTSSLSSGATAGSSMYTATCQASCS

[3] = molecular target: T2, human amylin receptor (hAMYR3) (Homo sapiens, UniProt O60896+P30988); assay: Amylin receptor assay, method B (CRE-luciferase reporter, BHK cells); type: cell-based
T2 construct: host or cells: BHK cells (Hollex-1 line expressing hCTR(a) and CRE-Luc), further transfected with human RAMP3
T2 sequence (P30988 25-474): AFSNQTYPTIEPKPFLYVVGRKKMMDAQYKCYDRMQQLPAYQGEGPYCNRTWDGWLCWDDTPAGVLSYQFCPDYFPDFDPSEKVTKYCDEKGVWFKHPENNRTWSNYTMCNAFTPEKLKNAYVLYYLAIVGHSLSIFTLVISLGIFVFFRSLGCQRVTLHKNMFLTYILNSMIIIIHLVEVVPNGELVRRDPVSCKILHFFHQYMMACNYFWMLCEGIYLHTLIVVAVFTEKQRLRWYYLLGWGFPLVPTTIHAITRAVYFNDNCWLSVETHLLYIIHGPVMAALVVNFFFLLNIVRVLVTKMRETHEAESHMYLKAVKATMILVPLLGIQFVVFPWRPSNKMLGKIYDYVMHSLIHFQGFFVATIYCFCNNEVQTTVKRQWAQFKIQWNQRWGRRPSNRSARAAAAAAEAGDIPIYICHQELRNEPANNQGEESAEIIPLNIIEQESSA
T2 sequence (O60896 24-148): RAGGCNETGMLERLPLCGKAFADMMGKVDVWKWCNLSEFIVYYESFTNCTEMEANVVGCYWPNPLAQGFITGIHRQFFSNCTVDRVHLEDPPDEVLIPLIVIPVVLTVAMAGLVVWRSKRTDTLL
Outline: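 BHK cells with CRE-luciferase, co-expressing hAMYR3 and transfected with human RAMP3, seeded overnight, then exposed 3 h at 37 °C to compound. Buffer: phenol red-free DMEM, 10 mM HEPES, 1% ovalbumin, with 0% or 1% (w/v) HSA. Luminescence read after 30 min with steadylite Plus.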

[4] = molecular target: T3, human GIP receptor (hGIPR) (Homo sapiens, UniProt P48546); assay: GIP receptor assay, method B (CRE-luciferase reporter, BHK cells, 384-well); type: cell-based
T3 construct: expressed in transfected cells
T3 sequence (P48546 22-466): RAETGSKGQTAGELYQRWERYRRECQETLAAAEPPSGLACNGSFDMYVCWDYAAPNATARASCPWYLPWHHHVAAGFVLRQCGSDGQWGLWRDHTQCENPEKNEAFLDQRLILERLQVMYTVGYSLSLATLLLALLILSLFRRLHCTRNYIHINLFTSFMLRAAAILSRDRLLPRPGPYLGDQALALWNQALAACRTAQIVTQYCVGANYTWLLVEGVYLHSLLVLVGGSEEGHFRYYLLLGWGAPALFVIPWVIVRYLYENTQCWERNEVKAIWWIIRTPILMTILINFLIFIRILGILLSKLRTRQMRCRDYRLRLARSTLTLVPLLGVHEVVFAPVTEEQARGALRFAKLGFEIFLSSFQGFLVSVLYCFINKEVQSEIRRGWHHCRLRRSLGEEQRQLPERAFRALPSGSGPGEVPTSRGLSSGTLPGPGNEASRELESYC
Protocol: To assess how the activation of the receptors is potentially influenced by the presence of human serum albumin (HSA), the in vitro assays were performed in the absence of HSA and presence of 1% (w/v) HSA.
Activation of the human GIP receptor leads to increased intra-cellular concentrations of cyclic AMP (cAMP) and the consequent transcription activation from promoters containing multiple copies of the cAMP response element (CRE). It is thus possible to measure GIP receptor activity using a CRE-luciferase reporter gene introduced into Baby Hamster Kidney (BHK) cells co-expressing the human GIP receptor.
Cells at about 80-90% confluency were washed once with PBS (Gibco 14190-094) and detached from the cell flasks with Versene (Gibco, 15040-066). After centrifugation, the cells were counted, resuspended and diluted to approximately 1.5-3.0×10^6 (1.5E+6 to 3.0E+6) cells/mL in Recovery Cell Culture Freezing Medium (Gibco, 12648-010) and stored at −180° C. in suitable aliquots until use.
The assay buffer consisted of DMEM without phenol red (Gibco, 11880-028) supplemented with 1× GlutaMAX (Gibco, 35050-038), 10 mM HEPES (Gibco, 15630-056), 1% (w/v) ovalbumin (Sigma, A5503) and 0.1% (v/v) Pluronic F-68 (Gibco, 24040-032) either with HSA or without HSA (Sigma, A9511).
Serial dilutions were transferred to a 384-well assay plate (PerkinElmer/Revvity, 6007688) and mixed with an equal volume (10 μL) of assay buffer without or with 3% HSA (Sigma, A-9511). Frozen stocks of hGIPR BHK Cre-Luc cells were thawed in a 37° C. water bath, washed once in PBS (Gibco 14190-094), diluted to 1.5×10^5 (1.5E+5) cells/mL in assay buffer (without HSA) and added (10 μL) to each well of the 384-well assay plate. After a short centrifugation, the assay plates were incubated for 3 hours at 37° C. in 5% CO2 and let to equilibrated at room temperature for 10 minutes before the addition of 30 μL steadylite Plus™ (PerkinElmer/Revvity, 6066759) per well. Plates were sealed and incubated at room temperature with gentle shaking for 30 minutes while protected from light. Luminescence was detected on a luminescence plate reader e.g. a Synergy 2 (BioTek).

half-life [1]: 122 h
Substance: H[Aib]HGTFTSDYSILLEEQAAREFIEWLLAGGPSK([AEEA-AEEA-γGlu-C18 diacid])GAPPPSGGGEASELSTAALGRLSAELHELATLPRTETGSGSP-NH2 [Compound 15]

half-life [1]: 81 h
Substance: H[Aib]HGTFTSDYSILLEEQAAREFIEWLLAGGPSK([AEEA-AEEA-γGlu-C16 diacid])GAPPPSGGGEASELSTAALGRLSAELHELATLPRTETGSGSP-NH2 [Compound 12]

half-life [1]: 122 h
Substance: H[Aib]HGTFTSDYSILLEEQAAREFIEWLLAGGPSK([AEEA-AEEA-γGlu-C18 diacid])GAPPPSGGGEASHLSTAQTARLSAELHQLATLPRTETGSGSP-NH2 [compound 101]

half-life [1]: 138 h
Substance: H[Aib]HGTFTSDYSILLEEQAAREFIEWLLAGGPSK([AEEA-AEEA-γGlu-C20 diacid])GAPPPSGGGEASELSTAALGRLSAELHELATLPRTETGSGSP-NH2 [Compound 16]

half-life [1]: 43 h
Substance: H[Aib]HGTFTSDYSILLEEQAAREFIEWLLAGGPSSGAGQAPGQAPGASHLSTAQTQRLSAELHRLK([AEEA-AEEA-γGlu-C18 diacid])TLPRTETGSGSP-NH2 [Compound 91]

half-life [1]: 97 h
Substance: Y[Aib]EGTFTSDYSILLEEQAAREFIEWLLAGGPSSGAGQAPGQAPLASHLSTAQTQRLSAELHK([AEEA-AEEA-γGlu-C18 diacid])LATLPRTETGSGSP-NH2 [compound 58]

half-life [1]: 69 h
Substance: H[Aib]HGTFTSDYSILLEEQAAREFIEWLLAGGPSSGAGQAPGQAPLASHLSTAQTQRLSAELHK([AEEA-AEEA-γGlu-C18 diacid])LATLPRTETGSGSP-NH2 [Compound 93]

half-life [1]: 117 h
Substance: H[Aib]HGTFTSDYSILLEEQAAREFIEWLLAGGPSK([AEEA-AEEA-γGlu-C18 diacid])GEASQLSTAALGRLSAELHQLATLPRTETGSGSP-NH2 [Compound 64]

The remaining lines, values behind:

Substance: Y[Aib]EGTFTSDYSILLEEQAAREFIEWLLAGGPSRGEASHLSTAQTQRLSAELHK([AEEA-AEEA-γGlu-C18 diacid])LATLPRTETGSGSP-NH2 [compound 68]
half-life [1]: 125 h

Substance: Y[Aib]EGTFTSDYSILLEEQAAREFIEWLLAGGPSSGAGQAPGQAPGASHLSTAQTQRLSAELHRLATLPK([AEEA-AEEA-γGlu-C18 diacid])TETGSGSP-NH2 [Compound 57]
half-life [1]: 90 h

Substance: Y[Aib]EGTFTSDYSILLEEQAAREFIEWLLAGGPSSGAGQAPGQAPGASHLSTAQTQRLSAELHK([AEEA-AEEA-γGlu-C18 diacid])LATLPRTETGSGSP-NH2 [compound 52]
half-life [1]: 120 h

Substance: Y[Aib]EGTFTSDYSILLEEQAAREFIEWLLAGGPSSGAGQAPGQAPGASHLSTAQTQRLSAK([AEEA-AEEA-γGlu-C18 diacid])LHRLATLPRTETGSGSP-NH2 [compound 55]
half-life [1]: 88 h

Substance: Y[Aib]EGTFTSDYSILLEEQAAREFIEWLLAGGPSSGAGQAPGQAPGASHLSTAQTQRLSAELHK([AEEA-AEEA-γGlu-C20 diacid])LATLPRTETGSGSP-NH2 [Compound 115]
half-life [1]: 115 h
EC50 ([2]; hGLP-1R Potency, 1% HSA, EC50, methods B, in the presence of 1% HSA): 0.0929 nM
EC50 ([2]; method B, absence of HSA, read-out: hGLP-1R Potency, no HSA, EC50): 0.0194 nM
EC50 ([3]; hAMYR3 Potency, 1% HSA, EC50, methods B, in the presence of 1% HSA): 0.551 nM
EC50 ([3]; method B, absence of HSA, read-out: hAMYR3 Potency, no HSA, EC50): 0.00713 nM
EC50 ([4]; hGIPR Potency, 1% HSA, EC50, methods B, in the presence of 1% HSA): 0.0389 nM
EC50 ([4]; method B, absence of HSA, read-out: hGIPR Potency, no HSA, EC50): 0.0103 nM

Substance: Y[Aib]EGTFTSDYSILLEEQAAREFIEWLLAGGPSK([AEEA-AEEA-γGlu-C16 diacid])GEASELSTAALGRLSAELHELATLPRTETGSGSP-NH2 [Compound 11]
half-life [1]: 119 h

Substance: H[Aib]HGTFTSDYSILLEEQAAREFIEWLLAGGPSK([AEEA-AEEA-γGlu-C16 diacid])GAPPPSGGGEASHLSTAQTARLSAELHRLADLPRTETGSGSP-NH2 [Compound 61]
half-life [1]: 61 h
